Structures are written as SMILES. The source made the active and inactive calls. No cut-off for these calls is given here. Where only a bound is given, the exact number is not on record here.

Data set [1] deals with B16-F10. The data set can be described thus: Inhibition of alpha-MSH-induced melanogenesis in mouse B16F10 cells at 10 uM after 3 days by spectrophotometric analysis relative to control. Format: functional. The conditions noted are these: B16-F10, 72 h.
Data set [2] in a line: Inhibition of tyrosinase.
Data set [3] relates to B16-F10. The data set can be described thus: Inhibition of alpha-MSH-induced melanogenesis in mouse B16F10 cells at 1 uM after 3 days by spectrophotometric analysis relative to control. Particulars: B16-F10, 72 h. Format: functional.
The subject of data set [4] is B16-F10. As to the kind of experiment: Cytotoxicity against mouse alpha-MSH-induced B16F10 cells at 0.31 to 20 uM after 3 days by trypan blue staining. Particulars: b16-f10, 72 h. Format: cell-based.
In data set [5] the test system is B16-F10. As to the kind of experiment: Inhibition of alpha-MSH-induced melanogenesis in mouse B16F10 cells after 3 days by spectrophotometric analysis. Particulars: for IC50: B16-F10, 72 h. Format: functional, cell-based.
For data set [6], the system named is B16-F10. As to the kind of experiment: Ratio of kojic acid IC50 to compound IC50 for melanogenesis in mouse B16F10 cells. Format: functional.
Data set [7] deals with B16-F10. The data set can be described thus: Downregulation of tyrosinase in mouse B16F10 cells assessed as tyrosinase protein expression level at 5 uM after 24 hrs by Western blot analysis relative to actin (reference value: 1.6). Format: functional. On the technique in general: Immunoblotting shows a protein as a band on a membrane.
The subject of data set [8] is B16-F10. As to the kind of experiment: Downregulation of tyrosinase in mouse B16F10 cells assessed as tyrosinase protein expression level at 5 uM after 48 hrs by Western blot analysis relative to actin (reference value: 1.1). Format: functional.

`O=C(c1noc2c1CCCCC2)N1CCN(c2ccc(Cl)cc2)CC1` yielded an inhibition at 10 µM with B16-F10 [1] of 7%. Further, the inhibition entry in data set [2] was “inactive”.

In turn, `CCCc1ccc(N2CCCN(C(=O)c3noc4c3CCCCC4)CC2)cc1` had an inhibition at 1 µM in the data set on B16-F10 [3] of 15%. The compound also registered an inhibition at 10 µM in the data set on B16-F10 [1] of 95%. For the same compound, the inhibition result in data set [2] is “inactive”.

`O=C(c1noc2c1CCCCC2)N1CCN(c2ccc(F)cc2)CC1`: the inhibition at 10 µM in the data set with B16-F10 [1] was less than 5%. For the same compound, in data set [2], the inhibition entry was “inactive”.

Consider `COc1ccc(N2CCN(C(=O)c3noc4c3CCCCC4)CC2)cc1`, for which at 1 µM the inhibition in the data set on B16-F10 [3] was 42%. Besides, the Activity entry in the data set on B16-F10 [4] is “Non-toxic”. This compound also registered an inhibition at 10 µM with B16-F10 [1] of 92%. In the data set with B16-F10 [5], the inhibition result was “Dose-dependent effect” and the IC50 was determined as 670 nM. For the same compound, the inhibition entry in data set [2] is “inactive”. In addition, the “Ratio IC50” value with B16-F10 [6] turned out to be 126.

Compound `O=C(c1noc2c1CCCCC2)N1CCN(c2ncccn2)CC1` gave an inhibition at 1 µM with B16-F10 [3] of 11%. This compound showed an inhibition at 10 µM in the data set on B16-F10 [1] of 8%. Further, the inhibition entry in data set [2] is “inactive”.

Turning to `O=c1cc(CO)occ1O` [KOJIC ACID], the IC50 in the data set on B16-F10 [5] turned out to be 84500 nM.

Consider `O=C(c1noc2c1CCCCC2)N1CCN(c2ccc3c(c2)OCCO3)CC1`, for which the inhibition at 10 µM in the data set with B16-F10 [1] was less than 5%. Also, the inhibition entry in data set [2] is “inactive”.

Take `COc1cccc(N2CCN(C(=O)c3noc4c3CCCCC4)CC2)c1`: in the data set on B16-F10 [1], the inhibition at 10 µM was less than 5%. For the same compound, the inhibition entry in data set [2] is “inactive”.

As to `COc1ccc(N2CCCN(C(=O)c3noc4c3CCCCC4)CC2)cc1`, testing at 10 µM with B16-F10 [1] gave an inhibition of 30%. In data set [2], the inhibition entry is “inactive”.

In the data set on B16-F10 [3], `COc1ccc(CN2CCN(C(=O)c3noc4c3CCCCC4)CC2)cc1` had an inhibition at 1 µM of less than 5%. This compound gave an inhibition at 10 µM in the data set on B16-F10 [1] of less than 5%. In addition, the inhibition entry in data set [2] was “inactive”.

For the compound `CCCOc1ccc(N2CCN(C(=O)c3noc4c3CCCCC4)CC2)cc1`, 1 µM produced 34% inhibition in the data set on B16-F10 [3]. This compound gave an inhibition at 10 µM in the data set with B16-F10 [1] of 38%. For the same compound, in data set [2], the inhibition entry was “inactive”.

Take `CCCc1ccc(N2CCN(C(=O)c3noc4c3CCCCC4)CC2)cc1`: in the data set on B16-F10 [3], the inhibition at 1 µM is 21%. For the same compound, in the data set on B16-F10 [1], the inhibition at 10 µM was 56%. The inhibition entry in data set [2] is “inactive”.

For `O=C(c1noc2c1CCCCC2)N1CCN(c2ccc(O)cc2)CC1`, the inhibition at 1 µM in the data set with B16-F10 [3] was 47%. For the same compound, the Activity entry in the data set with B16-F10 [4] was “Non-toxic”. For the same compound, the inhibition at 10 µM with B16-F10 [1] was found to be 89%. In the data set on B16-F10 [5], the inhibition entry is “Dose-dependent effect” and half-maximal inhibition (IC50) required 1010 nM. In addition, the inhibition result in data set [2] was “inactive”. Further, the “Ratio IC50” value in the data set with B16-F10 [6] was determined as 85.

Regarding `CCOc1ccc(N2CCN(C(=O)c3noc4c3CCCCC4)CC2)cc1`, in the data set with B16-F10 [3], at 1 µM the inhibition was 47%. Besides, in the data set with B16-F10 [4], the Activity entry is on record as “Non-toxic”. Further, the “fold change (FC)” value in the data set with B16-F10 [7] is given as 0.9; in the data set on B16-F10 [8] it was 0.7. Moreover, in the data set on B16-F10 [1], the inhibition at 10 µM was found to be 90%. For the same compound, the inhibition result with B16-F10 [5] is “Dose-dependent effect”. In the data set on B16-F10 [5], this compound displayed a concentration for half-maximal inhibition (IC50) of 990 nM. For the same compound, the inhibition entry in data set [2] was “inactive”. Also, in the data set with B16-F10 [6], the “Ratio IC50” value worked out at 85.

In the data set on B16-F10 [1], `Cc1ccc(N2CCN(C(=O)c3noc4c3CCCCC4)CC2)cc1` gave an inhibition at 10 µM of less than 5%. Further, in data set [2], the inhibition entry is “inactive”.

Broadly, the inhibition is the percentage by which the read-out fell short of the control. One may read the IC50 as the concentration needed to halve the response being measured.

The values above are taken from ChEMBL document CHEMBL2163196, “Discovery of small molecules that inhibit melanogenesis via regulation of tyrosinase expression” (Bioorg Med Chem Lett, 2012).
